Data as given in ChEMBL document CHEMBL3137667, “[Drug-induced liver injury; fourteenth updated edition of the bibliographic database of liver injuries and related drugs]” (Gastroenterol Clin Biol, 2004).

How the values were obtained:
[1] = human
[2] = human; remark: listed apart in the source
[3] = human; remark: listed apart in the source
[4] = human, serum
[5] = human; remark: listed apart in the source
[6] = Times to onset, minimal and maximal, observed in the indexed observations. [column 'DELAI' in source]; details: human
[7] = human, serum, 4383 h
[8] = human; remark: listed apart in the source
[9] = Highest frequency of acute liver toxicity observed during clinical trials, expressed as a percentage. [column '% AIGUE' in source]; details: human
[10] = human; remark: listed apart in the source
[11] = human; remark: listed apart in the source
[12] = human; remark: listed apart in the source
[13] = human, serum; remark: listed apart in the source
[14] = Highest frequency of moderate liver toxicity observed during clinical trials, expressed as a percentage. [column '% BIOL' in source]; details: human
[15] = human; remark: listed apart in the source
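For Hepatotoxicity (association with vascular disease) in this document: count of indexed literature references reporting vascular liver injury in humans, e.g. peliosis hepatitis, hepatic veno-occlusive disease or Budd-Chiari syndrome.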
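For Hepatotoxicity (benign tumour) in this document: value is a count of indexed literature references citing a benign tumour confirmed by histopathology.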
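For Hepatotoxicity (choleostasis) in this document: human cholestatic liver injury, shown by histopathology or by peak ALT or AST elevation over alkaline phosphatase ratio below 2, value counts indexed literature reports.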
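For Hepatotoxicity (chronic liver disease) in this document: chronic liver injury confirmed by histopathology or persistently raised serum aminotransferase activity beyond 6 months, value given as the count of indexed literature references.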
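For Hepatotoxicity (cirrhosis) in this document: value is a count of indexed literature references reporting cirrhosis confirmed by histopathology.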
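For Hepatotoxicity (cytolytic) in this document: human cytolytic liver injury, shown by histopathology or by a ratio above 5 of peak ALT or AST elevation to alkaline phosphatase elevation, value counts indexed references.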
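For Hepatotoxicity (granulomatous hepatitis) in this document: value is a count of indexed literature references reporting granulomatous liver disease confirmed by histopathology.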
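For Hepatotoxicity (malignant tumour) in this document: malignant tumour confirmed by histopathology, value gives the count of indexed literature references reporting it.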
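For Hepatotoxicity (severe hepatitis) in this document: human clinical data: severe hepatitis, meaning potentially life-threatening liver failure or clinically observed cases, the value counts how many indexed literature references report it.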
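For Hepatotoxicity (steatosis) in this document: steatosis confirmed by histopathology, value is the count of indexed references.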

SMILES	Hepatotoxicity (steatosis) [1]	Hepatotoxicity (benign tumour) [2]	Hepatotoxicity (malignant tumour) [3]	Hepatotoxicity (acute) [4]	Hepatotoxicity (severe hepatitis) [5]	Hepatotoxicity (time to onset) [6]	Hepatotoxicity (chronic liver disease) [7]	Hepatotoxicity (choleostasis) [8]	Hepatotoxicity (acute) [9]	Hepatotoxicity (association with vascular disease) [10]	Hepatotoxicity (granulomatous hepatitis) [11]	Hepatotoxicity (cirrhosis) [12]	Hepatotoxicity (moderate) [13]	Hepatotoxicity (moderate) [14]	Hepatotoxicity (cytolytic) [15]	other results
COc1c(C)c2c(c(O)c1C/C=C(\C)CCC(=O)OCCN1CCOCC1)C(=O)OC2 [MYCOPHENOLATE MOFETIL]	0	0	0	1	0	2 weeks	0	0	0%	0	0	0	3	33.3%	1	
CCN(CC)CCOC(=O)[C@@H](Cc1cccc2ccccc12)C[C@@H]1CCCO1 [NAFTIDROFURYL]	0	0	0	3	0	7 weeks - 4.3 months	0	2	0%	0	1	0	0	0%	2	
CN1CCOC(c2ccccc2)c2ccccc2C1 (stereo not given) [NEFOPAM]	0	0	0	0	0	4 weeks	0	0	0%	0	0	0	1	14.3%	0	
O=[N+]([O-])c1cc(Cl)cc(-c2cc(Cl)cc([N+](=O)[O-])c2O)c1O [NICLOFOLAN]	0	0	0	1	0	1 week	0	1	0%	0	0	0	0	0%	0	
COCCOC(=O)C1=C(C)NC(C)=C(C(=O)OC(C)C)C1c1cccc([N+](=O)[O-])c1 (stereo not given) [NIMODIPINE]	0	0	0	3	0	6 months	0	0	0.7%	0	0	0	5	2.7%	1	
CNC(=C[N+](=O)[O-])NCCSCc1csc(CN(C)C)n1 [NIZATIDINE]	0	0	0	2	1	2 weeks	0	0	0.2%	0	0	1	3	3.5%	2	
CC(=O)[C@@]1(O)CC[C@H]2[C@@H]3C=C(C)C4=CC(=O)CC[C@@H]4[C@H]3CC[C@@]21C [NOMEGESTROL]	0	0	0	2	2	4 months - 5 months	0	0	0%	0	0	0	0	0%	2	
OCCN1CCN(CCCN2c3ccccc3C=Cc3ccccc32)CC1 [OPIPRAMOL]	0	0	0	2	1	11 days - 11 weeks	0	0	0%	0	0	0	0	0%	2	
CCCCCCCCCCC[C@@H](C[C@@H]1OC(=O)[C@H]1CCCCCC)OC(=O)[C@H](CC(C)C)NC=O [ORLISTAT]	0	0	0	2	1	3 weeks - 1.5 months	0	1	0%	0	0	0	0	0%	1	
C=CCOc1ccccc1OCC(O)CNC(C)C (stereo not given) [OXPRENOLOL]	0	0	0	1		1 day - 15 days	0			0		0	1			Hepatotoxicity (severe hepatitis) ([5]; Liver): 0; Hepatotoxicity (choleostasis) ([8]; Liver): 0; Hepatotoxicity (acute) ([9]; Liver): 0%; Hepatotoxicity (granulomatous hepatitis) ([11]; Liver): 0; Hepatotoxicity (moderate) ([14]; Liver): 0%; Hepatotoxicity (cytolytic) ([15]; Liver): 1
CC(=O)O[C@H]1C(=O)[C@@]2(C)[C@H]([C@H](OC(=O)c3ccccc3)[C@]3(O)C[C@H](OC(=O)[C@H](O)[C@@H](NC(=O)c4ccccc4)c4ccccc4)C(C)=C1C3(C)C)[C@]1(OC(C)=O)CO[C@@H]1C[C@@H]2O [PACLITAXEL]	0	0	0	5		1 days	0			0		0	7			Hepatotoxicity (severe hepatitis) ([5]; Liver): 0; Hepatotoxicity (choleostasis) ([8]; Liver): 0; Hepatotoxicity (acute) ([9]; Liver): 6%; Hepatotoxicity (granulomatous hepatitis) ([11]; Liver): 0; Hepatotoxicity (moderate) ([14]; Liver): 50%; Hepatotoxicity (cytolytic) ([15]; Liver): 3
